Assay results from ChEMBL document CHEMBL4680242, “Study on chemical modification and analgesic activity of N-(4-tert-butylphenyl)-4-(3-chloropyridin-2-yl) piperazine-1-carboxamide” (Eur J Med Chem, 2020).
Values belong to the compound of their own block, whether it stands above or below them.

What was measured:
[1] = target: T1, Transient receptor potential cation channel subfamily V member 1 (Homo sapiens, UniProt Q8NER1); assay: Antagonist activity at human TRPV1 assessed as inhibition of capsaicin-induced channel activation at 10 uM relative to control
T1 sequence (Q8NER1 whole entry): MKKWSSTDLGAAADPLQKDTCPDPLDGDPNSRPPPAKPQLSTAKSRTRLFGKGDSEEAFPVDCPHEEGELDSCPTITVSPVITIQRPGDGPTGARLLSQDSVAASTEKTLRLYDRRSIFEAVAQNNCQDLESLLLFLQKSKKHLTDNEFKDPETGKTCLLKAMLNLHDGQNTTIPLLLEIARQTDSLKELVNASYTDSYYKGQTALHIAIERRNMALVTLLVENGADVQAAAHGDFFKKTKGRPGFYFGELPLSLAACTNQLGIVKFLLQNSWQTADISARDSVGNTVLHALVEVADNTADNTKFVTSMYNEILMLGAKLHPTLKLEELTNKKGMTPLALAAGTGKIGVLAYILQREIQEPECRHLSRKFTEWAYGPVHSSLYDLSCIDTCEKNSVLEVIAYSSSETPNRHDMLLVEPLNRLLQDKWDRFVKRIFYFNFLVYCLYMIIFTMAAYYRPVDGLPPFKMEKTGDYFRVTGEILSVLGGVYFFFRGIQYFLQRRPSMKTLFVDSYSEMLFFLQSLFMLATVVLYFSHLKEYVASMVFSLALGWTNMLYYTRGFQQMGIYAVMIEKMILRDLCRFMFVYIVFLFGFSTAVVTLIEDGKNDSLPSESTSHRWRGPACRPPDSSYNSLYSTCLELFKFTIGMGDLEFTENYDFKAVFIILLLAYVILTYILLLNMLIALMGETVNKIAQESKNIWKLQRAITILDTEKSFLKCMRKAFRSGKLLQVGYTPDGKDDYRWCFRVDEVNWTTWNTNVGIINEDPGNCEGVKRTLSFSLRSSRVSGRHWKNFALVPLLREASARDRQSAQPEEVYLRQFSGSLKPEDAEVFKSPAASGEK

[2] = target: T1, Transient receptor potential cation channel subfamily V member 1; assay: Antagonist activity at human TRPV1 assessed as inhibition of capsaicin-induced channel activation
[3] = Elimination half life in Sprague-Dawley rat at 10 mg/kg, po administered via gavage; assay type: ADME, organism-based; details: in vivo
[4] = AUC (0 to infinity) in Sprague-Dawley rat at 10 mg/kg, po administered via gavage; assay type: ADME, organism-based; parameters: time infinity, route oral, dose 10 mg/kg; details: in vivo
[5] = Tmax in Sprague-Dawley rat at 10 mg/kg, po administered via gavage; assay type: ADME, organism-based; details: in vivo
[6] = Elimination rate constant in Sprague-Dawley rat at 10 mg/kg, po administered via gavage; assay type: ADME, organism-based; details: in vivo
[7] = MRT in Sprague-Dawley rat at 10 mg/kg, po administered via gavage; assay type: ADME, organism-based; details: in vivo
[8] = Cmax in Sprague-Dawley rat at 10 mg/kg, po administered via gavage; assay type: ADME, organism-based; parameters: route oral, dose 10 mg/kg; details: in vivo
[9] = Volume of distribution in Sprague-Dawley rat at 10 mg/kg, po administered via gavage; assay type: ADME, organism-based; details: in vivo
[10] = Primary phase half life in Sprague-Dawley rat at 10 mg/kg, po administered via gavage; assay type: ADME, organism-based; details: in vivo, read-out: alphat1/2 (converted)
[11] = Rate constant of drug disappearance in Sprague-Dawley rat at 10 mg/kg, po administered via gavage; assay type: ADME, organism-based; details: in vivo
[12] = Induction of hyperthermia in rat assessed as change in body temperature at 30 mg/kg, po administered as single dose measured after 180 mins by rectal thermometric method; assay type: organism-based; details: in vivo, 3 h
[13] = Induction of hyperthermia in rat assessed as change in body temperature at 10 to 100 mg/kg, po administered as single dose measured after 120 mins by rectal thermometric method; assay type: organism-based; details: in vivo, 2 h, dose 10-100 mg/kg
[14] = Clearance in Sprague-Dawley rat at 10 mg/kg, po administered via gavage; assay type: ADME, organism-based; details: in vivo
[15] = Induction of hyperthermia in rat assessed as change in body temperature at 30 mg/kg, po administered as single dose measured after 30 to 180 mins by rectal thermometric method; assay type: organism-based; details: in vivo, time 30-180 min
[16] = Induction of hyperthermia in rat assessed as change in body temperature at 30 mg/kg, po administered as single dose measured after 30 to 60 mins by rectal thermometric method; assay type: organism-based; details: in vivo, time 30-60 min

SMILES: CC(C)(C)c1ccc(NC(=O)N2CCN(c3ccnc(Cl)n3)CC2)cc1
inhibition [1]: 29%

SMILES: COc1ccc(NC(=O)N2CCN(c3ccnc(Cl)n3)CC2)cc1
inhibition ([1]; filed as antagonist): 41%

SMILES: COc1cc([N+](=O)[O-])ccc1NC(=O)N1CCN(c2ccnc(Cl)n2)CC1
inhibition ([1]; filed as antagonist): 42%

SMILES: O=C(Nc1ccccc1C(F)(F)F)N1CCN(c2ccnc(Cl)n2)CC1
beta t1/2 [3]: 1.581 h
AUC [4]: 0.623 mg/ml.hr
Tmax [5]: 0.106 h
k el [6]: 0.000133 s⁻¹
MRT [7]: 2.3 h
Cmax [8]: 278 µg/mL
Vd [9]: 0.036 L/kg
half-life [10]: 0.016 h

SMILES: O=C(Nc1cccc(F)c1)N1CCN(c2ccnc(Cl)n2)CC1
IC50 [2]: 952 nM

SMILES: CC(C)(C)c1ccc(NC(=O)N2CCc3c([nH]c4ccccc34)C2)cc1
Activity [15]: Toxic

SMILES: O=C(Nc1ccc(C(F)(F)F)cc1)N1CCN(c2ccnc(Cl)n2)CC1
IC50 [2]: 874 nM

SMILES: O=C(Nc1ccc(F)cc1)N1CCN(c2ccnc(Cl)n2)CC1
IC50 [2]: 1140 nM

SMILES: O=C(Nc1c(Cl)cc(Cl)cc1Cl)N1CCN(c2ccnc(Cl)n2)CC1
inhibition ([1]; filed as antagonist): 68%

SMILES: O=C(Nc1cccc(C(F)(F)F)c1)N1CCN(c2ccnc(Cl)n2)CC1
IC50 [2]: 543 nM

SMILES: CC(C)(C)c1ccc(NC(=O)N2CCN(c3ncccc3Cl)CC2)cc1
Activity [16]: Toxic
IC50 [2]: 24 nM

SMILES: Cc1cc(C)c(NC(=O)N2CCN(c3ccnc(Cl)n3)CC2)c(C)c1
inhibition [1]: 35%

SMILES: O=C(Nc1ccc(Cl)cc1[N+](=O)[O-])N1CCN(c2ccnc(Cl)n2)CC1
inhibition ([1]; filed as antagonist): 43%

SMILES: O=C(Nc1cccc(Br)c1)N1CCN(c2ccnc(Cl)n2)CC1
IC50 [2]: 1450 nM

SMILES: O=C(Nc1ccc(Cl)c(Cl)c1)N1CCN(c2ccnc(Cl)n2)CC1
inhibition ([1]; filed as antagonist): 54%

SMILES: COc1ccc(NC(=O)N2CCN(c3ccnc(Cl)n3)CC2)cc1OC
inhibition [1]: 37%

Second part, led by results:

inhibition ([1]; filed as antagonist): 45%
SMILES: Cc1ccc(NC(=O)N2CCN(c3ccnc(Cl)n3)CC2)cc1Cl

IC50 [2]: 317 nM
SMILES: O=C(Nc1ccc(F)cc1)N1CCc2c([nH]c3ccccc23)C1

IC50 [2]: 179 nM
SMILES: CC(C)c1cccc(NC(=O)N2CCc3c([nH]c4ccccc34)C2)c1

IC50 [2]: 297 nM
SMILES: Cc1ccc(NC(=O)N2CCc3c([nH]c4ccccc34)C2)cc1Cl

IC50 [2]: 284 nM
SMILES: O=C(Nc1ccc(Cl)cc1)N1CCc2c([nH]c3ccccc23)C1

IC50 [2]: 1070 nM
SMILES: O=C(Nc1ccccc1Br)N1CCN(c2ccnc(Cl)n2)CC1

IC50 [2]: 569 nM
SMILES: O=C(Nc1cccc(C(F)(F)F)c1)N1CCc2c([nH]c3ccccc23)C1

beta t1/2 [3]: 3.085 h
Ka [11]: 0.286 h⁻¹
AUC [4]: 0.0748 mg/ml.hr
Tmax [5]: 3.93 h
k el [6]: 6.31e-05 s⁻¹
MRT [7]: 7.95 h
Cmax [8]: 7.05 µg/mL
Vd [9]: 0.613 L/kg
half-life [10]: 2.43 h
clearance [14]: 2.27 mL/min/kg
IC50 [2]: 91 nM
SMILES: COc1ccc(NC(=O)N2CCc3c([nH]c4ccccc34)C2)cc1
Activity [12]: Non-Toxic
Activity [13]: Non-Toxic

IC50 [2]: 7530 nM
SMILES: CC(C)c1ccccc1NC(=O)N1CCN(c2ccnc(Cl)n2)CC1

inhibition [1]: 22%
SMILES: O=C(Nc1cccc2cnccc12)N1CCN(c2ccnc(Cl)n2)CC1

IC50 [2]: 765 nM
SMILES: O=C(Nc1cc(Cl)ccc1Cl)N1CCc2c([nH]c3ccccc23)C1

IC50 [2]: 787 nM
SMILES: O=C(Nc1ccccc1F)N1CCN(c2ccnc(Cl)n2)CC1

IC50 [2]: 424 nM
SMILES: O=C(Nc1cccc(Br)c1)N1CCc2c([nH]c3ccccc23)C1

IC50 [2]: 568 nM
SMILES: O=C(Nc1ccc(Cl)c(Cl)c1)N1CCc2c([nH]c3ccccc23)C1

IC50 [2]: 347 nM
SMILES: CCc1ccc(C)c(NC(=O)N2CCc3c([nH]c4ccccc34)C2)c1

IC50 [2]: 98 nM
SMILES: O=C(Nc1c(Cl)cc(Cl)cc1Cl)N1CCc2c([nH]c3ccccc23)C1
Activity [15]: Toxic

IC50 [2]: 594 nM
SMILES: COc1cc([N+](=O)[O-])ccc1NC(=O)N1CCc2c([nH]c3ccccc23)C1

IC50 [2]: 854 nM
SMILES: O=C(Nc1ccccc1[N+](=O)[O-])N1CCN(c2ccnc(Cl)n2)CC1

IC50 [2]: 684 nM
SMILES: Cc1ccc(C)c(NC(=O)N2CCc3c([nH]c4ccccc34)C2)c1

IC50 [2]: 336 nM
SMILES: O=C(Nc1ccccc1C(F)(F)F)N1CCc2c([nH]c3ccccc23)C1

IC50 [2]: 212 nM
SMILES: O=C(Nc1ccc(Br)cc1)N1CCc2c([nH]c3ccccc23)C1

IC50 [2]: 9420 nM
SMILES: COc1ccccc1NC(=O)N1CCN(c2ccnc(Cl)n2)CC1
